Measurements reported in patent US20050065176A1, “Combinations” (priority 2003, published 2005).
Structures can show the parent of a compound that is named as a salt.

What was measured:
[1] = Plasma concentration (Cmax) of gabapentin in the rat

With CCC[C@@H](C)C[C@H](N)CC(=O)O.Cl as the molecule, how does the melting point read?
Its melting point is 142.5 to 142.7 °C.

For CCCC(C)(C)CC(CN)C(=O)O.Cl (stereo not drawn), which melting point is on record?
The melting point was 229.5 to 231 °C.

Which melting point does the source give for CCCC[C@@H](C)C[C@H](N)CC(=O)O (as salt: hydrochloride) here?
Its melting point is 142.5 to 143.3 °C.

With CCC[C@@H](C)C[C@H](CN)C(=O)O (as salt: hydrochloride) as the molecule, how does the melting point read?
Its melting point is 226.3 to 228 °C.

Which melting point does the source give for CCCC(C)(C)C[C@H](N)CC(=O)O (as salt: hydrochloride) (hydrate or solvate) here?
Its melting point is 194.2 to 195.2 °C.

With NCC1(CC(=O)O)CCCCC1 [gabapentin, 1-(aminomethyl)-cyclohexylacetic acid] as the molecule, how does the Cmax [1] read?
Its Cmax is 520 to 10500 ng/mL.
